Reference: PubChem BioAssay (NCI)
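Test compounds were applied to cells in 96-well plates for 48 hours at 5 doses. Definition used: TGI = concentration required for complete inhibition of growth.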

How the values were obtained:
Assay in all cases: NCI-60 cell line screen, 48 h
786-0 renal = tested on: 786-0 renal
A549 NSCLC = tested on: A549 NSCLC
ACHN renal = tested on: ACHN renal
BT-549 breast = tested on: BT-549 breast
CAKI-1 renal = tested on: CAKI-1 renal
COLO 205 colon = tested on: COLO 205 colon
EKVX NSCLC = tested on: EKVX NSCLC
HCC-2998 colon = tested on: HCC-2998 colon
HCT-116 colon = tested on: HCT-116 colon
HCT-15 colon = tested on: HCT-15 colon
HL-60(TB) leukemia = tested on: HL-60(TB) leukemia
HOP-62 NSCLC = tested on: HOP-62 NSCLC
HOP-92 NSCLC = tested on: HOP-92 NSCLC
HS 578T breast = tested on: HS 578T breast
HT29 colon = tested on: HT29 colon
IGROV1 ovarian = tested on: IGROV1 ovarian
K-562 leukemia = tested on: K-562 leukemia
KM12 colon = tested on: KM12 colon
LOX IMVI melanoma = tested on: LOX IMVI melanoma
M14 melanoma = tested on: M14 melanoma
MALME-3M melanoma = tested on: MALME-3M melanoma
MCF7 breast = tested on: MCF7 breast
MDA-MB-231 breast = tested on: MDA-MB-231 breast
MDA-MB-435 = tested on: MDA-MB-435
MDA-N = tested on: MDA-N
MOLT-4 leukemia = tested on: MOLT-4 leukemia
NCI-H226 lung = tested on: NCI-H226 lung
NCI-H23 lung = tested on: NCI-H23 lung
NCI-H460 lung = tested on: NCI-H460 lung
NCI-H522 lung = tested on: NCI-H522 lung
NCI/ADR-RES ovarian = tested on: NCI/ADR-RES ovarian
OVCAR-4 ovarian = tested on: OVCAR-4 ovarian
OVCAR-5 ovarian = tested on: OVCAR-5 ovarian
OVCAR-8 ovarian = tested on: OVCAR-8 ovarian
PC-3 prostate = tested on: PC-3 prostate
RPMI-8226 leukemia = tested on: RPMI-8226 leukemia
RXF 393 renal = tested on: RXF 393 renal
SF-268 CNS = tested on: SF-268 CNS
SF-295 CNS = tested on: SF-295 CNS
SF-539 CNS = tested on: SF-539 CNS
SK-MEL-2 melanoma = tested on: SK-MEL-2 melanoma
SK-MEL-28 melanoma = tested on: SK-MEL-28 melanoma
SK-MEL-5 melanoma = tested on: SK-MEL-5 melanoma
SK-OV-3 ovarian = tested on: SK-OV-3 ovarian
SN12C renal = tested on: SN12C renal
SNB-19 CNS = tested on: SNB-19 CNS
SNB-75 CNS = tested on: SNB-75 CNS
SR leukemia = tested on: SR leukemia
SW-620 colon = tested on: SW-620 colon
T-47D breast = tested on: T-47D breast
TK-10 renal = tested on: TK-10 renal
U251 CNS = tested on: U251 CNS
UACC-257 melanoma = tested on: UACC-257 melanoma
UACC-62 melanoma = tested on: UACC-62 melanoma
UO-31 renal = tested on: UO-31 renal
A498 renal = tested on: A498 renal
CCRF-CEM leukemia = tested on: CCRF-CEM leukemia
DU-145 prostate = tested on: DU-145 prostate
OVCAR-3 ovarian = tested on: OVCAR-3 ovarian

CCN(CC)c1nc(N(C)C)c2ccccc2n1
TGI (786-0 renal): > 100 µM | TGI (A549 NSCLC): > 100 µM | TGI (ACHN renal): > 100 µM | TGI (BT-549 breast): > 100 µM | TGI (CAKI-1 renal): > 100 µM | TGI (COLO 205 colon): 83.3 µM | TGI (EKVX NSCLC): 51.1 µM | TGI (HCC-2998 colon): 38.3 µM | TGI (HCT-116 colon): > 100 µM | TGI (HCT-15 colon): > 100 µM | TGI (HL-60(TB) leukemia): > 100 µM | TGI (HOP-62 NSCLC): > 100 µM | TGI (HOP-92 NSCLC): > 100 µM | TGI (HS 578T breast): > 100 µM | TGI (HT29 colon): > 100 µM | TGI (IGROV1 ovarian): > 100 µM | TGI (K-562 leukemia): 44.5 µM | TGI (KM12 colon): > 100 µM | TGI (LOX IMVI melanoma): > 100 µM | TGI (M14 melanoma): 72.1 µM | TGI (MALME-3M melanoma): > 100 µM | TGI (MCF7 breast): > 100 µM | TGI (MDA-MB-231 breast): > 100 µM | TGI (MDA-MB-435): > 100 µM | TGI (MDA-N): 59.9 µM | TGI (MOLT-4 leukemia): 30.3 µM | TGI (NCI-H226 lung): 69.3 µM | TGI (NCI-H23 lung): > 100 µM | TGI (NCI-H460 lung): > 100 µM | TGI (NCI-H522 lung): 96.9 µM | TGI (NCI/ADR-RES ovarian): > 100 µM | TGI (OVCAR-4 ovarian): > 100 µM | TGI (OVCAR-5 ovarian): > 100 µM | TGI (OVCAR-8 ovarian): > 100 µM | TGI (PC-3 prostate): > 100 µM | TGI (RPMI-8226 leukemia): 40.6 µM | TGI (RXF 393 renal): 76.6 µM | TGI (SF-268 CNS): > 100 µM | TGI (SF-295 CNS): > 100 µM | TGI (SF-539 CNS): 96.1 µM | TGI (SK-MEL-2 melanoma): > 100 µM | TGI (SK-MEL-28 melanoma): > 100 µM | TGI (SK-MEL-5 melanoma): 35 µM | TGI (SK-OV-3 ovarian): > 100 µM | TGI (SN12C renal): > 100 µM | TGI (SNB-19 CNS): > 100 µM | TGI (SNB-75 CNS): > 100 µM | TGI (SR leukemia): 27.5 µM | TGI (SW-620 colon): > 100 µM | TGI (T-47D breast): > 100 µM | TGI (TK-10 renal): > 100 µM | TGI (U251 CNS): > 100 µM | TGI (UACC-257 melanoma): > 100 µM | TGI (UACC-62 melanoma): 56.1 µM | TGI (UO-31 renal): 85.1 µM

O=C1CN(/N=C/c2ccc(-c3ccc(F)cc3)o2)C(=O)N1
TGI (786-0 renal): > 100 µM | TGI (A498 renal): > 100 µM | TGI (A549 NSCLC): > 100 µM | TGI (ACHN renal): > 100 µM | TGI (CAKI-1 renal): > 100 µM | TGI (CCRF-CEM leukemia): > 100 µM | TGI (COLO 205 colon): > 100 µM | TGI (DU-145 prostate): > 100 µM | TGI (EKVX NSCLC): > 100 µM | TGI (HCC-2998 colon): > 100 µM | TGI (HCT-116 colon): > 100 µM | TGI (HCT-15 colon): > 100 µM | TGI (HL-60(TB) leukemia): > 100 µM | TGI (HOP-62 NSCLC): > 100 µM | TGI (HOP-92 NSCLC): 57.8 µM | TGI (HS 578T breast): > 100 µM | TGI (IGROV1 ovarian): > 100 µM | TGI (K-562 leukemia): > 100 µM | TGI (KM12 colon): > 100 µM | TGI (LOX IMVI melanoma): > 100 µM | TGI (M14 melanoma): > 100 µM | TGI (MALME-3M melanoma): > 100 µM | TGI (MCF7 breast): > 100 µM | TGI (MDA-MB-231 breast): > 100 µM | TGI (MDA-MB-435): 41.1 µM | TGI (MDA-N): 38.6 µM | TGI (MOLT-4 leukemia): > 100 µM | TGI (NCI-H226 lung): 88.5 µM | TGI (NCI-H23 lung): > 100 µM | TGI (NCI-H460 lung): > 100 µM | TGI (NCI-H522 lung): 85 µM | TGI (NCI/ADR-RES ovarian): > 100 µM | TGI (OVCAR-3 ovarian): > 100 µM | TGI (OVCAR-5 ovarian): > 100 µM | TGI (OVCAR-8 ovarian): > 100 µM | TGI (PC-3 prostate): > 100 µM | TGI (RPMI-8226 leukemia): > 100 µM | TGI (RXF 393 renal): > 100 µM | TGI (SF-268 CNS): > 100 µM | TGI (SF-295 CNS): > 100 µM | TGI (SF-539 CNS): > 100 µM | TGI (SK-MEL-2 melanoma): > 100 µM | TGI (SK-MEL-28 melanoma): 83.6 µM | TGI (SK-MEL-5 melanoma): > 100 µM | TGI (SK-OV-3 ovarian): > 100 µM | TGI (SN12C renal): > 100 µM | TGI (SNB-19 CNS): > 100 µM | TGI (SR leukemia): 75.7 µM | TGI (SW-620 colon): > 100 µM | TGI (T-47D breast): > 100 µM | TGI (TK-10 renal): > 100 µM | TGI (U251 CNS): > 100 µM | TGI (UACC-257 melanoma): > 100 µM | TGI (UACC-62 melanoma): > 100 µM | TGI (UO-31 renal): > 100 µM
